Data from BigSolDB 2.1.

O=c1c2ccccc2nc2n1CCc1c-2[nH]c2ccccc12
solubility (mole fraction)
Settings	283.2 K	288.2 K	293.2 K	298.2 K	303.2 K	313.2 K	323.2 K
in acetone	0.000735	–	0.000972	–	0.00129	0.00149	0.00196
in chloroform	0.000287	–	0.000511	–	0.000922	0.00211	0.00485
in cyclohexane	6.24e-06	–	1.14e-05	–	1.73e-05	2.52e-05	3.78e-05
in dichloromethane	0.00142	0.00162	0.00182	0.00196	0.00224	–	–
in diethyl ether	0.00024	0.000273	0.000313	0.000396	0.000454	–	–
in ethanol	9.75e-05	–	0.000143	–	0.000203	0.000279	0.000394
in ethyl acetate	0.00104	–	0.00123	–	0.00153	0.00195	0.00255
in isopropanol	7.94e-05	–	0.000127	–	0.000192	0.000292	0.000459
in methanol	6.61e-05	–	8.18e-05	–	0.000117	0.000161	0.000229
in n-butanol	0.000186	–	0.000266	–	0.000369	0.000577	0.000955
in n-hexane	6.17e-06	–	1.21e-05	–	1.62e-05	2.63e-05	3.97e-05
in n-pentane	4.31e-06	6.89e-06	9.67e-06	1.53e-05	2.47e-05	–	–
